Measured values taken from publication PMC5218480 (PLoS ONE, 2017).

Tested on: MV-4-11 cells
Experiment: Gene expression microarray analysis (Affymetrix PrimeView) and GSEA
Type: cell-based, human
Set-up: RFU PODN (11730768_x_at) / Fold change /veh PODN (11730768_x_at) / RFU LINC00158 (11744669_a_at) / Fold change /veh LINC00158 (11744669_a_at) / RFU DUSP10 (11751237_a_at) / Fold change /veh DUSP10 (11751237_a_at) / RFU ID3 (11757404_x_at) / Fold change /veh ID3 (11757404_x_at) / RFU PLEKHG5 (11737974_s_at) / Fold change /veh PLEKHG5 (11737974_s_at) / RFU LRRC4B (11730491_at) / Fold change /veh LRRC4B (11730491_at) / RFU GIMAP4 (11747438_a_at) / Fold change /veh GIMAP4 (11747438_a_at) / RFU KRT8 (11758183_x_at) / Fold change /veh KRT8 (11758183_x_at) / RFU CNN1 (11734310_a_at) / Fold change /veh CNN1 (11734310_a_at) / RFU VPS37D (11726825_at) / Fold change /veh VPS37D (11726825_at) / RFU C10orf10 (11716522_x_at) / Fold change /veh C10orf10 (11716522_x_at) / RFU KIR2DL2 /// KIR2DL4 /// KIR2DL5A /// KIR2DL5B /// KIR2DS1 /// KIR2DS2 /// KIR2DS3 /// KIR2DS4 /// KIR3DL3 /// KIR3DL3 /// KIR3DS1 (11738374_at) / Fold change /veh KIR2DL2 /// KIR2DL4 /// KIR2DL5A /// KIR2DL5B /// KIR2DS1 /// KIR2DS2 /// KIR2DS3 /// KIR2DS4 /// KIR3DL3 /// KIR3DL3 /// KIR3DS1 (11738374_at) / RFU C1QL1 (11718748_at) / Fold change /veh C1QL1 (11718748_at) / RFU TMPRSS4 (11747572_a_at) / Fold change /veh TMPRSS4 (11747572_a_at) / RFU HAMP (11756126_x_at) / Fold change /veh HAMP (11756126_x_at) / RFU RNFT2 (11725882_a_at) / Fold change /veh RNFT2 (11725882_a_at) / RFU NR4A2 (11747474_a_at) / Fold change /veh NR4A2 (11747474_a_at) / RFU ABCC12 (11746883_a_at) / Fold change /veh ABCC12 (11746883_a_at) / RFU TMEM136 (11760407_x_at) / Fold change /veh TMEM136 (11760407_x_at) / RFU CLDN22 /// WWC2 (11732394_at) / Fold change /veh CLDN22 /// WWC2 (11732394_at) / RFU HLA-DPB1 (11760878_x_at) / Fold change /veh HLA-DPB1 (11760878_x_at) / RFU SPINT1 (11716480_a_at) / Fold change /veh SPINT1 (11716480_a_at) / RFU GAP43 (11754022_s_at) / Fold change /veh GAP43 (11754022_s_at) / RFU A4GNT (11735810_at) / Fold change /veh A4GNT (11735810_at) / RFU PRB3 (11715151_x_at) / Fold change /veh PRB3 (11715151_x_at) / RFU TUBB4B (11761932_at) / Fold change /veh TUBB4B (11761932_at) / RFU CAPN14 (11732068_a_at) / Fold change /veh CAPN14 (11732068_a_at) / RFU TMCC2 (11721928_a_at) / Fold change /veh TMCC2 (11721928_a_at) / RFU IRGQ (11745062_a_at) / Fold change /veh IRGQ (11745062_a_at) / RFU FAM174B (11720279_a_at) / Fold change /veh FAM174B (11720279_a_at) / RFU TMPRSS4 (11748680_a_at) / Fold change /veh TMPRSS4 (11748680_a_at) / RFU FAM212B (11763350_a_at) / Fold change /veh FAM212B (11763350_a_at) / RFU PLEKHG5 (11743358_a_at) / Fold change /veh PLEKHG5 (11743358_a_at) / RFU ZSCAN30 (11745921_a_at) / Fold change /veh ZSCAN30 (11745921_a_at) / RFU CMKLR1 (11741424_a_at) / Fold change /veh CMKLR1 (11741424_a_at) / RFU LOC101060620 /// MAPK8IP1 (11723275_at) / Fold change /veh LOC101060620 /// MAPK8IP1 (11723275_at) / RFU SPTSSB (11747773_x_at) / Fold change /veh SPTSSB (11747773_x_at) / RFU PRSS12 (11739890_at) / Fold change /veh PRSS12 (11739890_at) / RFU BIN1 (11741810_x_at) / Fold change /veh BIN1 (11741810_x_at) / RFU WNT11 (11732464_a_at) / Fold change /veh WNT11 (11732464_a_at) / RFU C10orf10 (11716521_a_at) / Fold change /veh C10orf10 (11716521_a_at) / RFU C5orf56 (11738089_at) / Fold change /veh C5orf56 (11738089_at) / RFU CYB561 (11721691_x_at) / Fold change /veh CYB561 (11721691_x_at) / RFU ANKRD19P (11752326_a_at) / Fold change /veh ANKRD19P (11752326_a_at) / RFU OR2T12 /// OR2T33 /// OR2T8 (11738714_s_at) / Fold change /veh OR2T12 /// OR2T33 /// OR2T8 (11738714_s_at) / RFU VCAN (11748164_a_at) / Fold change /veh VCAN (11748164_a_at) / RFU JSRP1 (11732532_at) / Fold change /veh JSRP1 (11732532_at) / RFU KRTAP10-11 (11738290_x_at) / Fold change /veh KRTAP10-11 (11738290_x_at) / RFU MYO3A (11730013_a_at) / Fold change /veh MYO3A (11730013_a_at) / RFU EBF3 (11725865_a_at) / Fold change /veh EBF3 (11725865_a_at) / RFU CAMK2N1 (11719241_x_at) / Fold change /veh CAMK2N1 (11719241_x_at) / RFU C5orf56 (11738088_a_at) / Fold change /veh C5orf56 (11738088_a_at) / RFU OLFML3 (11715873_a_at) / Fold change /veh OLFML3 (11715873_a_at) / RFU LOC100653217 /// NTM (11731650_a_at) / Fold change /veh LOC100653217 /// NTM (11731650_a_at) / RFU MAPK11 (11762145_a_at) / Fold change /veh MAPK11 (11762145_a_at) / RFU FIZ1 (11724087_x_at) / Fold change /veh FIZ1 (11724087_x_at) / RFU OASL (11726364_x_at) / Fold change /veh OASL (11726364_x_at) / RFU SOX15 (11748057_x_at) / Fold change /veh SOX15 (11748057_x_at) / RFU CD79A (11719716_a_at) / Fold change /veh CD79A (11719716_a_at) / RFU HIST1H1D (11736915_at) / Fold change /veh HIST1H1D (11736915_at) / RFU CASKIN2 (11723855_a_at) / Fold change /veh CASKIN2 (11723855_a_at) / RFU LOC730098 (11760151_x_at) / Fold change /veh LOC730098 (11760151_x_at) / RFU OR4N2 (11742367_at) / Fold change /veh OR4N2 (11742367_at) / RFU PRRT2 (11749266_a_at) / Fold change /veh PRRT2 (11749266_a_at) / RFU SNX32 (11753110_a_at) / Fold change /veh SNX32 (11753110_a_at) / RFU CDHR5 (11726645_a_at) / Fold change /veh CDHR5 (11726645_a_at) / RFU RCAN1 (11760418_a_at) / Fold change /veh RCAN1 (11760418_a_at) / RFU FAM167A (11723789_a_at) / Fold change /veh FAM167A (11723789_a_at) / RFU FAM26E (11764081_at) / Fold change /veh FAM26E (11764081_at) / RFU ISYNA1 (11749810_s_at) / Fold change /veh ISYNA1 (11749810_s_at) / RFU ACY1 (11761880_at) / Fold change /veh ACY1 (11761880_at) / RFU 11764098_at / Fold change /veh 11764098_at / RFU SAMD14 (11745864_x_at) / Fold change /veh SAMD14 (11745864_x_at) / RFU NPB (11741838_a_at) / Fold change /veh NPB (11741838_a_at) / RFU TMPRSS6 (11731388_a_at) / Fold change /veh TMPRSS6 (11731388_a_at) / RFU KRTAP10-2 (11738614_at) / Fold change /veh KRTAP10-2 (11738614_at) / RFU ARHGAP8 /// PRR5-ARHGAP8 (11727945_x_at) / Fold change /veh ARHGAP8 /// PRR5-ARHGAP8 (11727945_x_at) / RFU KRTAP5-7 /// NADSYN1 (11734609_at) / Fold change /veh KRTAP5-7 /// NADSYN1 (11734609_at) / RFU RASL12 (11751679_a_at) / Fold change /veh RASL12 (11751679_a_at) / RFU CDKN2B (11736163_a_at) / Fold change /veh CDKN2B (11736163_a_at) / RFU PRF1 (11729649_at) / Fold change /veh PRF1 (11729649_at) / RFU, ZNF638 /// ZNF638-IT1 / Fold change vs veh, ZNF638 /// ZNF638-IT1 / RFU, PANK3 / Fold change vs veh, PANK3 / RFU, SH3YL1 / Fold change vs veh, SH3YL1 / RFU, ZEB2 / Fold change vs veh, ZEB2 / RFU, NRIP1 / Fold change vs veh, NRIP1 / RFU, PTTG1IP / Fold change vs veh, PTTG1IP / RFU, CAPN2 / Fold change vs veh, CAPN2 / RFU, MED14 / Fold change vs veh, MED14 / RFU, SNORA58 / Fold change vs veh, SNORA58 / RFU, C1orf63 / Fold change vs veh, C1orf63 / RFU, LRRFIP1 / Fold change vs veh, LRRFIP1 / RFU, NDUFAF7 / Fold change vs veh, NDUFAF7 / RFU, SLC12A2 / Fold change vs veh, SLC12A2 / RFU, IBTK / Fold change vs veh, IBTK / RFU, ESF1 / Fold change vs veh, ESF1 / Fold change vs veh, TMEM50B / RFU, TAOK1 / Fold change vs veh, TAOK1 / RFU, ACBD3 / Fold change vs veh, ACBD3 / RFU, TMA16 / Fold change vs veh, TMA16 / RFU, RWDD3 / Fold change vs veh, RWDD3 / RFU, BCAT1 / Fold change vs veh, BCAT1 / RFU, EDEM3 / Fold change vs veh, EDEM3 / RFU, TMEM33 / Fold change vs veh, TMEM33 / RFU, WDR75 / Fold change vs veh, WDR75 / RFU, AHCTF1 / Fold change vs veh, AHCTF1 / RFU, TFRC / Fold change vs veh, TFRC / RFU, ZDHHC17 / Fold change vs veh, ZDHHC17 / RFU, NOM1 / Fold change vs veh, NOM1 / RFU, ARL8B / Fold change vs veh, ARL8B / RFU, ZBTB11 / Fold change vs veh, ZBTB11 / RFU, TAMM41 / Fold change vs veh, TAMM41 / RFU, KIAA1704 /// LOC100996395 / Fold change vs veh, KIAA1704 /// LOC100996395 / RFU, ING1 / Fold change vs veh, ING1 / RFU, TRMT61B / Fold change vs veh, TRMT61B / RFU, FUBP3 / Fold change vs veh, FUBP3 / RFU, TP53 / Fold change vs veh, TP53 / RFU, TNKS2 / Fold change vs veh, TNKS2 / RFU, ZFP14 / Fold change vs veh, ZFP14 / RFU, ACTR2 / Fold change vs veh, ACTR2 / RFU, PPP3R1 / Fold change vs veh, PPP3R1 / RFU, PIK3R1 / Fold change vs veh, PIK3R1 / RFU, HNRNPA1 / Fold change vs veh, HNRNPA1 / RFU, RNF170 / Fold change vs veh, RNF170 / RFU, ZNF28 / Fold change vs veh, ZNF28 / RFU, RNGTT / Fold change vs veh, RNGTT / RFU, OGT / Fold change vs veh, OGT / RFU, BRD1 / Fold change vs veh, BRD1 / RFU, MARS / Fold change vs veh, MARS / RFU, ZNF655 / Fold change vs veh, ZNF655 / RFU, FAHD1 / Fold change vs veh, FAHD1 / RFU, BDP1 / Fold change vs veh, BDP1 / RFU, LRRCC1 / Fold change vs veh, LRRCC1 / RFU, ARID1A / Fold change vs veh, ARID1A / RFU, ZNF146 / Fold change vs veh, ZNF146 / RFU, ZNF330 / Fold change vs veh, ZNF330 / RFU, GPN3 / Fold change vs veh, GPN3 / RFU, C9orf123 / Fold change vs veh, C9orf123 / RFU, N4BP2L2 / Fold change vs veh, N4BP2L2 / RFU, ARFIP1 / Fold change vs veh, ARFIP1 / RFU, FAM179B / Fold change vs veh, FAM179B / RFU, BCL10 / Fold change vs veh, BCL10 / RFU, UHRF1BP1L / Fold change vs veh, UHRF1BP1L / RFU, BET1 / Fold change vs veh, BET1 / RFU, CNOT2 / Fold change vs veh, CNOT2 / RFU, ZNF268 / Fold change vs veh, ZNF268 / Fold change vs veh, ZNF507 / RFU, DGCR2 / Fold change vs veh, DGCR2 / RFU, WDSUB1 / Fold change vs veh, WDSUB1 / Fold change vs veh, HSP90B1 /// MIR3652 / RFU, ADSS / Fold change vs veh, ADSS / RFU, GK / Fold change vs veh, GK / RFU, ZNF148 / Fold change vs veh, ZNF148 / RFU, TAF9 / Fold change vs veh, TAF9 / RFU, SLC1A5 / Fold change vs veh, SLC1A5 / RFU, SLMO2 / Fold change vs veh, SLMO2 / RFU, ABCC4 / Fold change vs veh, ABCC4 / RFU, LOC101060439 /// RAP1B / Fold change vs veh, LOC101060439 /// RAP1B / RFU, RFX7 / Fold change vs veh, RFX7 / RFU, GTPBP10 / Fold change vs veh, GTPBP10 / RFU, CNEP1R1 / Fold change vs veh, CNEP1R1 / RFU, BIVM-ERCC5 /// ERCC5 / Fold change vs veh, BIVM-ERCC5 /// ERCC5 / RFU, ILF3 / Fold change vs veh, ILF3 / RFU 11762660_at / Fold change /veh 11762660_at / RFU VCAN (11757783_s_at) / Fold change /veh VCAN (11757783_s_at) / RFU DDX43 (11728927_at) / Fold change /veh DDX43 (11728927_at) / RFU KRT8 (11758188_x_at) / Fold change /veh KRT8 (11758188_x_at) / RFU NKD1 (11759106_at) / Fold change /veh NKD1 (11759106_at) / RFU SRD5A1 (11742802_a_at) / Fold change /veh SRD5A1 (11742802_a_at) / RFU TPSAB1 /// TPSB2 (11721975_s_at) / Fold change /veh TPSAB1 /// TPSB2 (11721975_s_at) / RFU GSTM3 (11746129_a_at) / Fold change /veh GSTM3 (11746129_a_at) / RFU IL23R (11737362_x_at) / Fold change /veh IL23R (11737362_x_at) / RFU TMEM51 (11727254_a_at) / Fold change /veh TMEM51 (11727254_a_at) / RFU PIWIL2 (11732686_x_at) / Fold change /veh PIWIL2 (11732686_x_at) / RFU ORM1 (11744905_x_at) / Fold change /veh ORM1 (11744905_x_at) / RFU CCDC152 (11743942_at) / Fold change /veh CCDC152 (11743942_at) / RFU ECM1 (11717891_a_at) / Fold change /veh ECM1 (11717891_a_at) / RFU IL23R (11748794_a_at) / Fold change /veh IL23R (11748794_a_at) / RFU TNFAIP8L3 (11732012_x_at) / Fold change /veh TNFAIP8L3 (11732012_x_at) / RFU MBOAT4 (11741988_at) / Fold change /veh MBOAT4 (11741988_at) / RFU 11764193_at / Fold change /veh 11764193_at / RFU TMEM53 (11763286_at) / Fold change /veh TMEM53 (11763286_at) / RFU MAGEB2 (11727129_at) / Fold change /veh MAGEB2 (11727129_at) / RFU TMEM200A (11744735_a_at) / Fold change /veh TMEM200A (11744735_a_at) / RFU CCDC152 (11751479_a_at) / Fold change /veh CCDC152 (11751479_a_at) / RFU FAM211A (11726209_a_at) / Fold change /veh FAM211A (11726209_a_at) / RFU RGS16 (11746705_a_at) / Fold change /veh RGS16 (11746705_a_at) / RFU VCAN (11755009_s_at) / Fold change /veh VCAN (11755009_s_at) / RFU RHOB (11743442_s_at) / Fold change /veh RHOB (11743442_s_at) / RFU RGS16 (11720943_a_at) / Fold change /veh RGS16 (11720943_a_at) / RFU RGS16 (11720944_at) / Fold change /veh RGS16 (11720944_at) / RFU, VPS4B / Fold change vs veh, VPS4B / RFU, CREB1 / Fold change vs veh, CREB1 / RFU, DNAJC13 / Fold change vs veh, DNAJC13 / RFU, GNAQ / Fold change vs veh, GNAQ / RFU, CDK5R1 / Fold change vs veh, CDK5R1 / RFU, ZRANB3 / Fold change vs veh, ZRANB3 / RFU, CUL4A / Fold change vs veh, CUL4A / RFU, CCNY / Fold change vs veh, CCNY / RFU, UFL1 / Fold change vs veh, UFL1 / RFU, COG3 / Fold change vs veh, COG3 / RFU, DIAPH2 / Fold change vs veh, DIAPH2 / RFU, SKA2 / Fold change vs veh, SKA2 / RFU, AFF3 / Fold change vs veh, AFF3 / RFU, LMF1 / Fold change vs veh, LMF1 / RFU, IPO11 / Fold change vs veh, IPO11 / RFU, DFFB / Fold change vs veh, DFFB / RFU, FOXP1 / Fold change vs veh, FOXP1 / RFU, CARD8 / Fold change vs veh, CARD8 / RFU, STRN3 / Fold change vs veh, STRN3 / RFU, ADK / Fold change vs veh, ADK / RFU, RASSF2 / Fold change vs veh, RASSF2 / RFU, WIPF1 / Fold change vs veh, WIPF1 / RFU, LARP1B / Fold change vs veh, LARP1B / RFU, RASA1 / Fold change vs veh, RASA1 / RFU, RB1 / Fold change vs veh, RB1 / RFU, PPFIA1 / Fold change vs veh, PPFIA1 / RFU, MAT2A / Fold change vs veh, MAT2A / RFU, CCT5 / Fold change vs veh, CCT5 / RFU, WDR92 / Fold change vs veh, WDR92 / RFU, CUX1 / Fold change vs veh, CUX1 / RFU, TTC7A / Fold change vs veh, TTC7A / RFU, TMEM135 / Fold change vs veh, TMEM135 / RFU, DEPTOR / Fold change vs veh, DEPTOR / RFU, CPM / Fold change vs veh, CPM / RFU, DNAJB6 / Fold change vs veh, DNAJB6 / RFU, CACNA2D3 / Fold change vs veh, CACNA2D3 / RFU, DTX4 / Fold change vs veh, DTX4 / RFU, TFCP2 / Fold change vs veh, TFCP2 / RFU, GMCL1 /// GMCL1P1 / Fold change vs veh, GMCL1 /// GMCL1P1 / RFU, AEBP2 / Fold change vs veh, AEBP2 / RFU, SNHG1 /// SNORD22 /// SNORD25 /// SNORD26 /// SNORD27 /// SNORD28 /// SNORD29 /// SNORD31 / Fold change vs veh, SNHG1 /// SNORD22 /// SNORD25 /// SNORD26 /// SNORD27 /// SNORD28 /// SNORD29 /// SNORD31 / Fold change (Aza/veh), C12orf56 (ProbeSet 11735607_a_at) / Fold change (ACY-1035/veh), C12orf56 (ProbeSet 11735607_a_at) / Fold change (Aza/veh), FGFR1OP (ProbeSet 11751329_s_at) / Fold change (ACY-1035/veh), FGFR1OP (ProbeSet 11751329_s_at) / Fold change (Aza/veh), VPS36 (ProbeSet 11739960_a_at) / Fold change (ACY-1035/veh), VPS36 (ProbeSet 11739960_a_at) / RFU SYPL1 (11715823_x_at) / Fold change /veh SYPL1 (11715823_x_at) / RFU IGFBP7 (11715501_s_at) / Fold change /veh IGFBP7 (11715501_s_at) / RFU REEP3 (11722064_at) / Fold change /veh REEP3 (11722064_at) / RFU IGLL1 (11728026_x_at) / Fold change /veh IGLL1 (11728026_x_at): dose or concentration left out as unconfirmed
Conditions: MV-4-11 cells, 48 hours

Nc1ccc(-c2cccs2)cc1NC(=O)c1ccc2c(c1)cc(C1CC1)n2CCN1CCOCC1 [ACY-1035]
RFU PRSS12 (11739890_at): 8.28 RFU
